# US20060258581A1, “Methods and composition for derepressions of IAP-inhibited caspase” (priority 2001, published 2006)
# Where a SMILES comes first, the peptide text is derived from it. Where no end group is shown, it is not given here. [ ]: non-standard residue; d: D form. The star is where a group is joined. Phe(4-Cl) = N[C@@H](Cc1ccc(Cl)cc1)C(=O)O; dPhe(4-Cl) = N[C@H](Cc1ccc(Cl)cc1)C(=O)O; dPhe(4-F) = N[C@H](Cc1ccc(F)cc1)C(=O)O; 2Nal = N[C@@H](Cc1ccc2ccccc2c1)C(=O)O; d2Nal = N[C@H](Cc1ccc2ccccc2c1)C(=O)O; Fmoc = O=C(OCC1c2ccccc2-c2ccccc21)*; 2Thi = N[C@@H](Cc1cccs1)C(=O)O; Cha = N[C@@H](CC1CCCCC1)C(=O)O
# Columns and labels:
# full length XIAP = full length XIAP (Homo sapiens, UniProt P98170); assay: Potency of IAP antagonists in vitro (Table VIII; caspase derepression / SMAC competition with full length XIAP); details: for Relative Potency (fold versus SMAC peptide): SMAC AVPI tetrapeptide = 1.0
# Jurkat leukemia cells = assay: Jurkat leukemia cell death, Annexin V/propidium iodide flow cytometry; type: cell-based
# Method: The following assay was used to test the ability of individual compounds from the TPI 1396 and TPI 1391 libraries to induce apoptosis of cultured tumor cell lines. Each of the compounds listed in Table IX was individually added to Jurkat leukemia cells (6.25×10^5 cells/mL) in RPMI containing 2.5% FBS at various concentrations for 20 hours. After incubation, cells were washed and stained with FITC-conjugated Annexin V antibody and propidium iodide (Biovision; Mountain View, Calif.). Cells were incubated for 20 minutes at room temperature in the dark and fluorescence was measured by flow cytometry (FACScan, Immunocytometry system; Becton-Dickinson; San Jose, Calif.). Cells staining positive for Annexin V were deemed non-viable.
# The TPI I396-34 and TPI 1391-28 compounds were further tested as set forth below.
# [1] = test system: ALVA31 prostate cancer cells; assay: ALVA31 prostate cancer cell viability (XTT dye-reduction, trypan blue); type: cell-based; details: 24 hrs; for cell viability, compound alone: peptides 40 μM, VP-16 100 μM
# Method: The in vivo effects of TPI 792-33 or TPI 792-35, either individually or in combination with the cytotoxic anticancer drug VP-16 (etoposide), on derepression of XIAP-inhibited caspase and viability of ALVA31 cells was determined as follows. ALVA31 prostate cancer cells were seeded onto 96 well plates (10^4 cells/well) in 100 μL RPMI containing 2.5% fetal bovine serum (FBS). […] After another 24 hrs-incubation, cell viability was measured by the XTT dye-reduction assay (Roche, Molecular Biochemicals; Indianapolis, Ind.) and trypan blue dye exclusion assay.
# [2] = test system: NCI panel of 60 tumor cell lines; assay: NCI panel of 60 tumor cell lines, 48 hours, protein-based colorimetric assay; design: species or system human
# Method: Selected polyphenylurea compounds were tested on the National Cancer Institute (NCI) panel of 60 tumor cell lines (see FIG. 28a and FIG. 29).
# XIAP-inhibited caspase-3 = target: T1, XIAP-inhibited caspase-3 (Homo sapiens, UniProt P98170); assay: IAP derepression assay: Ac-DEVD-AFC hydrolysis by caspase-3 in the presence of GST-XIAP; type: biochemical; details: for LC (lowest concentration with a ratio of 2 or higher in the derepression assay): tested at 0.4, 2, 10 and 50
# T1 construct: in a caspase derepression assay using full length XIAP; made in house; host or cells: bacteria
# Method: The ratio of Vmax for hydrolysis of Ac-DEVD-AFC in the presence and absence of the candidate mixture was calculated and used to identify those that contain an agent that derepresses an IAP-inhibited caspase.
# Each mixture was aliquoted in a 25 microliter volume and in duplicate to a well of a 96 well microtiter plate. […] Fluorescence of liberated AFC was immediately detected from each well for 30 minutes at 30 second intervals. The Vmax for hydrolysis of AC-DEVD-AFC from each well was measured using the softmax software package.
# XIAP = XIAP (Homo sapiens, UniProt P98170); assay: SMAC binding/competition assay: biotinylated SMAC 7-mer on NeutrAvidin plates, GST-XIAP detected by anti-GST; details: in words
# Method: Peptide compounds containing unnatural amino acids in the 792 series, 792-33 and 792-35 (see FIG. 12 and 20 and Example XI), and an active compound in the TPI 1332 series, TPI 1332-69, were tested for binding activity in the SMAC binding assay as described above in Example X. For this assay, biotinylated SMAC 7-mer peptide (50 ng) was bound to 96 well plates coated with NeutrAvidin (Pierce, Rockford, Ill.) at 1 mg/ml in 100 μl per well of 50 mM HEPES pH 7.4, 100 mM NaCl 1 mM EDTA, 10% sucrose, 0.1% CHAPS, 10 mM DTT.
# GST-XIAP (human) = GST-XIAP (human) (UniProt P98170); assay: cell-based or functional assay
# Chain of GST-XIAP (human) (P98170 whole entry): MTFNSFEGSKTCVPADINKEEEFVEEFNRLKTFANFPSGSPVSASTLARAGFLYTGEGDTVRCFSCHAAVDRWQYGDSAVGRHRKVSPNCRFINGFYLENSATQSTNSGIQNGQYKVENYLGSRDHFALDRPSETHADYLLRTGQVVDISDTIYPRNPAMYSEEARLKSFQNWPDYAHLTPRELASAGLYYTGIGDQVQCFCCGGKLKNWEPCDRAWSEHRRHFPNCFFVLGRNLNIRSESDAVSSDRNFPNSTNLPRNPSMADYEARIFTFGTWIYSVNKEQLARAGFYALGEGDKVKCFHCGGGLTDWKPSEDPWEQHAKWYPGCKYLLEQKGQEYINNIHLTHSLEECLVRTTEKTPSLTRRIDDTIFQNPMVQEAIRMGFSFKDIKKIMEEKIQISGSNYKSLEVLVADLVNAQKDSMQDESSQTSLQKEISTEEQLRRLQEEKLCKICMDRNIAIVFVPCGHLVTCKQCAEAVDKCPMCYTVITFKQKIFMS
# T1 sequence (P98170 whole entry): as above
# Chain of full length XIAP (P98170 whole entry): as above
# Chain of XIAP (P98170 whole entry): as above
molecule,measurement,setting,value
O=C1C(=O)N([C@H](CNCc2ccccc2)Cc2ccc3ccccc3c2)C[C@H](Cc2ccc3ccccc3c2)N1CCc1cccc(C(F)(F)F)c1 [TPI 1391-34],Relative Potency (fold versus SMAC peptide),full length XIAP,3.3
same,EC50,full length XIAP; amount of compound necessary to restore caspase-3 activity to 50% of Vmax,39.4 µM
CC(C)Cc1ccc(C(C)CN2C(=O)C(=O)N([C@H](CNCc3ccccc3)Cc3ccc4ccccc4c3)C[C@H]2CC(C)C)cc1 (some centres unmarked) [TPI 1391-25],% nonviable cells,Jurkat leukemia cells; 1 µM,16%
same,% nonviable cells,Jurkat leukemia cells; 10 µM,60%
same,% nonviable cells,Jurkat leukemia cells; 25 µM,90%
same,% nonviable cells,Jurkat leukemia cells; 50 µM,87%
"COc1cc([C@@H]2c3cc4c(cc3[C@@H](O[C@@H]3O[C@@H]5CO[C@@H](C)O[C@H]5[C@H](O)[C@H]3O)[C@H]3COC(=O)[C@H]23)OCO4)cc(OC)c1O [VP-16, etoposide, reference compound]","cell viability, compound alone",[1],essentially no effect
same,average (mean) LD50 for the 60 cell lines,[2],200 ± 2.5 µM
(D-Nal)-(D-pClPhe)-(L-pClPhe)-(Lys-εFmoc) ([d2Nal][dPhe(4-Cl)][Phe(4-Cl)]K(Fmoc)) [TPI 792-9],LC (lowest concentration with a ratio of 2 or higher in the derepression assay),XIAP-inhibited caspase-3,10 µg/mL
O=C(NC[C@@H](CC1CCCCC1)N(C[C@@H]1CCCN1CCC12CC3CC(CC(C3)C1)C2)C(=O)Nc1ccccc1)Nc1ccccc1 [TPI 1396-35],Activity* (relative caspase-3 activity: Vmax in the presence of compound / Vmax of controls having caspase-3 and XIAP),XIAP-inhibited caspase-3; XIAP derepression assay,2.5
(L-ThiAla)-(Lys-εFmoc)-(L-pClPhe)-(pF-D-F) ([2Thi]K(Fmoc)[Phe(4-Cl)][dPhe(4-F)]) [TPI 792-22],LC (lowest concentration with a ratio of 2 or higher in the derepression assay),XIAP-inhibited caspase-3,2 µg/mL
(L-ThiAla)-(D-pClPhe)-(L-pClPhe)-(Lys-εFmoc) ([2Thi][dPhe(4-Cl)][Phe(4-Cl)]K(Fmoc)) [TPI 792-27],LC (lowest concentration with a ratio of 2 or higher in the derepression assay),XIAP-inhibited caspase-3,2 µg/mL
(L-Cha)-(D-Nal)-(L-Trp)-(L-ThiAla) ([Cha][d2Nal]W[2Thi]) [TPI 1332-41],reversing XIAP-mediated suppression of caspase 3,"XIAP-inhibited caspase-3; 50 μg/ml, full length XIAP",Active
CCCC[C@@H](CNCc1ccccc1)N1C[C@@H](CC(C)C)N(CC2CCC(C(C)(C)C)CC2)C(=O)C1=O (some centres unmarked) [TPI 1391-5],% nonviable cells,Jurkat leukemia cells; 1 µM,17%
same,% nonviable cells,Jurkat leukemia cells; 10 µM,36%
same,% nonviable cells,Jurkat leukemia cells; 25 µM,88%
same,% nonviable cells,Jurkat leukemia cells; 50 µM,88%
"N[C@@H](Cc1cccs1)C(=O)N[C@@H](Cc1ccc2ccccc2c1)C(=O)N[C@H](CCCCNC(=O)OCC1c2ccccc2-c2ccccc21)C(=O)N[C@@H](CCCCNC(=O)OCC1c2ccccc2-c2ccccc21)C(=O)O [TPI 792-35, L-3-(2-thienyl)-alanyl, L-(2-naphthyl)-alanyl-D-(e-fluorenylmethyloxycarbonyl)-lysyl-L-(e-fluorenylmethyloxycarbonyl)-lysine] (H-[2Thi][2Nal][dK](Fmoc)K(Fmoc)-OH)",activity in the caspase derepression assay using full length XIAP,XIAP-inhibited caspase-3; in words,activity
same,LC (lowest concentration with a ratio of 2 or higher in the derepression assay),XIAP-inhibited caspase-3,2 µg/mL
same,competition with XIAP binding to the SMAC peptide (SMAC competition assay),XIAP,activity
same,"cell viability, compound alone",[1],reduced viability of these prostate cancer cells by nearly half
same,"tumor cell killing, combination with VP-16",[1]; peptide 40 μM with VP-16 100 μM,more potent tumor cell killing compared to VP-16 alone
same,Relative Potency (fold versus SMAC peptide),full length XIAP,2.5
(D-Nal)-(L-Nal)-(D-Lys-εFmoc)-(Lys-εFmoc) ([d2Nal][2Nal][dK](Fmoc)K(Fmoc)) [TPI 792-17],LC (lowest concentration with a ratio of 2 or higher in the derepression assay),XIAP-inhibited caspase-3,2 µg/mL
CCCC[C@@H](CNCc1ccccc1)N1C[C@@H](CC(C)C)N(CCc2cccc(C(F)(F)F)c2)C(=O)C1=O [TPI 1391-4],% nonviable cells,Jurkat leukemia cells; 1 µM,20%
same,% nonviable cells,Jurkat leukemia cells; 10 µM,48%
same,% nonviable cells,Jurkat leukemia cells; 25 µM,90%
same,% nonviable cells,Jurkat leukemia cells; 50 µM,86%
H-AVPIAQK-NH2 [SMAC peptide (H-Ala-Val-Pro-Ile-Ala-Gln-Lys-NH2)],Vmax(mix + casp3 + XIAP)/Vmax(casp3 + XIAP),GST-XIAP (human),3.8
